Results: the CheMixHub ionic liquid set
± gives the uncertainty stated by the source.

Test: xn = mol fraction of the nth substance listed
Conditions: 101 kPa

CCCCCCCCCCCCCCCC[n+]1ccccc1.O=C([O-])C(O)c1ccccc1 + CC(C)C[C@H](N)C(=O)O + O
electrical conductivity [S/m]
Conditions | 293.15 K | 298.15 K | 303.15 K
x1 = 9.1e-07, x2 = 0.001799 | 0.00171 ± 0.00075 | 0.00194 ± 0.00084 | 0.00216 ± 0.00094
x1 = 1.08e-06, x2 = 0 | 0.00061 ± 0.00098 | 0.00068 ± 0.0011 | 0.00076 ± 0.0012
x1 = 1.27e-06, x2 = 0.0009002 | 0.00143 ± 0.0009 | 0.0016 ± 0.001 | 0.0018 ± 0.0011
x1 = 1.98e-06, x2 = 0 | 0.001 ± 0.001 | 0.0012 ± 0.0012 | 0.0013 ± 0.0013
x1 = 2.19e-06, x2 = 0.001799 | 0.00211 ± 0.00075 | 0.00239 ± 0.00086 | 0.00267 ± 0.00096
x1 = 2.54e-06, x2 = 0.0009002 | 0.00187 ± 0.00077 | 0.00211 ± 0.00087 | 0.00235 ± 0.00098
x1 = 2.88e-06, x2 = 0 | 0.00147 ± 0.00099 | 0.0016 ± 0.0011 | 0.0018 ± 0.0012
x1 = 3.1e-06, x2 = 0.001799 | 0.00244 ± 0.00076 | 0.00277 ± 0.00086 | 0.00309 ± 0.00096
x1 = 3.44e-06, x2 = 0.0009002 | 0.0022 ± 0.0008 | 0.00251 ± 0.00089 | 0.00278 ± 0.00099
x1 = 3.96e-06, x2 = 0 | 0.0019 ± 0.001 | 0.0022 ± 0.0011 | 0.0024 ± 0.0013
x1 = 4.19e-06, x2 = 0.001799 | 0.00279 ± 0.00077 | 0.00316 ± 0.00087 | 0.00352 ± 0.00097
x1 = 4.69e-06, x2 = 0 | 0.0023 ± 0.001 | 0.0026 ± 0.0011 | 0.0029 ± 0.0013
x1 = 4.71e-06, x2 = 0.0009002 | 0.00261 ± 0.00078 | 0.00294 ± 0.00088 | 0.00329 ± 0.00098
x1 = 5.1e-06, x2 = 0.001799 | 0.00312 ± 0.00078 | 0.00353 ± 0.00089 | 0.00394 ± 0.00099
x1 = 5.95e-06, x2 = 0 | 0.00281 ± 0.00098 | 0.0032 ± 0.0011 | 0.0035 ± 0.0012
x1 = 5.98e-06, x2 = 0.0009002 | 0.00307 ± 0.00078 | 0.00345 ± 0.00087 | 0.00384 ± 0.00098
x1 = 6.74e-06, x2 = 0.001799 | 0.00363 ± 0.00076 | 0.0041 ± 0.00086 | 0.00457 ± 0.00096
x1 = 7.21e-06, x2 = 0 | 0.00341 ± 0.00095 | 0.0038 ± 0.0011 | 0.0042 ± 0.0012
x1 = 7.43e-06, x2 = 0.0009002 | 0.00352 ± 0.00076 | 0.00397 ± 0.00086 | 0.00441 ± 0.00096
x1 = 8.2e-06, x2 = 0.001799 | 0.00408 ± 0.00074 | 0.00463 ± 0.00084 | 0.00516 ± 0.00094
x1 = 8.7e-06, x2 = 0.0009002 | 0.00394 ± 0.00071 | 0.00445 ± 0.00082 | –
x1 = 8.83e-06, x2 = 0 | 0.00406 ± 0.00092 | 0.0046 ± 0.001 | –
x1 = 9.84e-06, x2 = 0.001799 | 0.00451 ± 0.00072 | 0.00511 ± 0.00082 | –
x1 = 1.045e-05, x2 = 0 | 0.00469 ± 0.00089 | 0.0053 ± 0.001 | –
x1 = 1.051e-05, x2 = 0.0009002 | 0.00444 ± 0.00072 | 0.00501 ± 0.00082 | –
x1 = 1.13e-05, x2 = 0.001799 | 0.00486 ± 0.00071 | 0.00551 ± 0.0008 | –
x1 = 1.196e-05, x2 = 0.0009002 | 0.00475 ± 0.00071 | 0.00538 ± 0.0008 | –
x1 = 1.207e-05, x2 = 0 | 0.00516 ± 0.00088 | 0.0058 ± 0.001 | –
x1 = 1.294e-05, x2 = 0.001799 | 0.00522 ± 0.00072 | 0.00591 ± 0.00081 | –
x1 = 1.323e-05, x2 = 0.0009002 | 0.00506 ± 0.00071 | 0.00573 ± 0.0008 | –
x1 = 1.351e-05, x2 = 0 | 0.00562 ± 0.00086 | 0.00631 ± 0.00097 | –
x1 = 1.44e-05, x2 = 0.001799 | 0.00556 ± 0.00073 | 0.00629 ± 0.00083 | –
x1 = 1.468e-05, x2 = 0.0009002 | 0.00539 ± 0.00074 | 0.00609 ± 0.00083 | –
x1 = 1.478e-05, x2 = 0 | 0.00603 ± 0.0009 | 0.0068 ± 0.001 | –
x1 = 1.585e-05, x2 = 0.001799 | 0.00586 ± 0.00076 | 0.00664 ± 0.00086 | –
x1 = 1.595e-05, x2 = 0.0009002 | 0.00568 ± 0.00093 | 0.00642 ± 0.00097 | –
x1 = 1.622e-05, x2 = 0 | 0.00644 ± 0.00092 | 0.0072 ± 0.001 | –
x1 = 1.722e-05, x2 = 0.0009002 | 0.00598 ± 0.00092 | 0.00676 ± 0.00092 | –
x1 = 1.731e-05, x2 = 0.001799 | 0.00617 ± 0.00077 | 0.00698 ± 0.00087 | –
x1 = 1.766e-05, x2 = 0 | 0.00687 ± 0.00093 | 0.0077 ± 0.001 | –
